Results taken from patent US10093678B2, “Azaspiro derivatives as TRPM8 antagonists” (RaQualia Pharma Inc., priority 2014, dated 2018).

The compounds below were run against T1, human TRPM8 (Homo sapiens, UniProt Q7Z2W7) (assay: Menthol-induced Ca2+ influx in HEK293 cells stably expressing human TRPM8). Details: 30 microM menthol-induced Ca2+ influx, read-out: IC50 against TRPM8.
T1 construct: expressed in transfected cells; host or cells: HEK293
Assay type: cell-based
Procedure, shortened: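 HEK293 cells stably expressing human TRPM8 were loaded with Fluo4-AM for 1 h at room temperature, preincubated 5 min with compound, then challenged with 30 microM menthol. Calcium rise was read by FDSS imaging. IC50 came from 11-point curves using duplicate-well means.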

T1 sequence (Q7Z2W7 whole entry): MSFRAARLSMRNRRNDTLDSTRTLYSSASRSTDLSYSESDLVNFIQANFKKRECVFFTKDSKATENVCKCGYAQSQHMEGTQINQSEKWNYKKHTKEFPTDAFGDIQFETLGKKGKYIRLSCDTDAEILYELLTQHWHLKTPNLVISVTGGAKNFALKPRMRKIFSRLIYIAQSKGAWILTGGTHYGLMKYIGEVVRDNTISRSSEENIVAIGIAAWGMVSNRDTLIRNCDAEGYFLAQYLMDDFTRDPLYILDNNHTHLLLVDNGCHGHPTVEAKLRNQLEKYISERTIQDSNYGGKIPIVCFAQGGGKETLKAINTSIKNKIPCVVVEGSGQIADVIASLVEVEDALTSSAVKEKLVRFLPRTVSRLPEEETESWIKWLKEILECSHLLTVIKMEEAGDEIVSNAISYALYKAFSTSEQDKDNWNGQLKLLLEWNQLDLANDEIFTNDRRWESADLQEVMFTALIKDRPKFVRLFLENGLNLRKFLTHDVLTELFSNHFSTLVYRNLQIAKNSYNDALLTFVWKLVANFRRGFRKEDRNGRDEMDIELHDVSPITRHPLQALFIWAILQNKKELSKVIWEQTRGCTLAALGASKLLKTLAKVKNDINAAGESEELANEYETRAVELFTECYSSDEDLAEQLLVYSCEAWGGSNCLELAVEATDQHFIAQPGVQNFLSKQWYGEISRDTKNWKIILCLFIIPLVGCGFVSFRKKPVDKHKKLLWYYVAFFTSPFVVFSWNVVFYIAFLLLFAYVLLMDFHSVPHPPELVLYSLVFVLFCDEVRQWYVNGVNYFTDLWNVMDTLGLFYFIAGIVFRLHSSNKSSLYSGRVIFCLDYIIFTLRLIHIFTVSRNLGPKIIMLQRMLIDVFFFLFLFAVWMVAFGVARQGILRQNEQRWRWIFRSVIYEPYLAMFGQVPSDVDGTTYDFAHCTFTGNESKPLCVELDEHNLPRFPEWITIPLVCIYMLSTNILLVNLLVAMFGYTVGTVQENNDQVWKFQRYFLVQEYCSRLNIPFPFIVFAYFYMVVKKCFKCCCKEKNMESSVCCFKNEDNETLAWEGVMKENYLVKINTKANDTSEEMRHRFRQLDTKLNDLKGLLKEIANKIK

Compound	IC50 [nM]
O=C(CN1C(=O)NC2(CCC(F)(F)CC2)C1=O)c1ccc(-c2ccnc3ccccc23)cc1 [Example 13-43]	< 100
O=C1Cc2c(cccc2-c2ccc(C(=O)CN3C(=O)NC4(CCC(F)(F)CC4)C3=O)cc2)N1 [Example 13-44]	< 100
COc1ncccc1-c1ccc(C(=O)CN2C(=O)NC3(CCC(F)(F)CC3)C2=O)cc1 [Example 13-45]	< 100
O=C(CN1C(=O)NC2(CCC(F)(F)CC2)C1=O)c1ccc(-c2cccc3cccnc23)cc1 [Example 13-46]	< 100
O=C(CN1C(=O)NC2(CCC(F)(F)CC2)C1=O)c1ccc(-c2ccc3ccccc3n2)cc1 [Example 13-47]	< 100
O=C(CN1C(=O)NC2(CCC(F)(F)CC2)C1=O)c1ccc(-c2cccnc2)cc1 [Example 13-48]	< 100
O=C(CN1C(=O)NC2(CCC(F)(F)CC2)C1=O)c1ccc(-c2ccccn2)cc1 [Example 13-49]	< 100
O=C(CN1C(=O)NC2(CCC(F)(F)CC2)C1=O)c1ccc(-c2ccnc3c2OCCO3)cc1 [Example 13-50]	< 500
Cc1ccncc1-c1ccc(C(=O)CN2CC3(CCCCC3)OC2=O)cc1 [Example 13-51]	< 100
Cc1ccncc1-c1ccc(C(=O)CN2CC3(CCC(F)(F)CC3)OC2=O)cc1 [Example 13-53]	< 100
O=C(CN1CC2(CCC(F)(F)CC2)OC1=O)c1ccc(-c2ccccc2CO)cc1 [Example 13-55]	< 100
Cc1ncccc1-c1ccc(C(=O)CN2CC3(CCC(F)(F)CC3)OC2=O)cc1 [Example 13-56]	< 500
O=C(CN1CC2(CCC(F)(F)CC2)OC1=O)c1ccc(-c2cccc3cccnc23)cc1 [Example 13-57]	< 500
N#Cc1cccc(-c2ccc(C(=O)CN3C(=O)NC4(CCC(F)(F)CC4)C3=O)cc2Cl)c1 [Example 13-68]	< 500
O=C(CN1C(=O)NC2(CCC(F)(F)CC2)C1=O)c1cc2cc(-c3cccnc3)ccc2o1 [Example 13-69]	< 500
Cc1ncccc1-c1ccc(C(=O)CN2C(=O)OC3(CCC(F)(F)CC3)C2=O)cc1 [Example 13-72]	< 100
Cc1cc(C(=O)CN2C(=O)NC3(CCCCC3)C2=O)sc1-c1cccnc1 [Example 14-1]	< 100
Cc1cc(C(=O)CN2C(=O)NC3(CCCCC3)C2=O)sc1-c1ccccc1CO [Example 14-2]	< 100
Cc1ccncc1-c1sc(C(=O)CN2C(=O)NC3(CCCCC3)C2=O)cc1C [Example 14-3]	< 100
Cc1cc(C(=O)CN2C(=O)NC3(CCC(F)(F)CC3)C2=O)sc1-c1ccccc1CO [Example 14-4]	< 100
Cc1ccncc1-c1sc(C(=O)CN2C(=O)NC3(CCC(F)(F)CC3)C2=O)cc1C [Example 14-5]	< 10
Cc1cc(C(=O)CN2C(=O)NC3(CCC(F)(F)CC3)C2=O)sc1-c1cnccc1CO [Example 14-6]	< 100
Cc1cc(C(=O)CN2C(=O)NC3(CCC(F)(F)CC3)C2=O)sc1-c1cccnc1 [Example 14-7]	< 100
Cc1cc(C(=O)CN2C(=O)NC3(CCC(F)(F)CC3)C2=O)sc1-c1ccccc1C#N [Example 14-8]	< 100
Cc1cc(C(=O)CN2C(=O)NC3(CCC(F)(F)CC3)C2=O)sc1-c1cccnc1C [Example 14-9]	< 100

Compound	IC50 [nM]
Cc1cc(C(=O)CN2C(=O)NC3(CCC(F)(F)CC3)C2=O)sc1-c1cccc(C#N)c1 [Example 14-10]	< 100
Cc1ccccc1-c1sc(C(=O)CN2C(=O)NC3(CCC(F)(F)CC3)C2=O)cc1C [Example 14-11]	< 100
COc1ccccc1-c1sc(C(=O)CN2C(=O)NC3(CCC(F)(F)CC3)C2=O)cc1C [Example 14-12]	< 100
Cc1cc(C(=O)CN2C(=O)NC3(CCC(F)(F)CC3)C2=O)sc1-c1cncc(C#N)c1 [Example 14-13]	< 100
Cc1cc(C(=O)CN2C(=O)NC3(CCC(F)(F)CC3)C2=O)sc1-c1ccccc1Cl [Example 14-14]	< 100
Cc1cc(C(=O)CN2C(=O)NC3(CCC(F)(F)CC3)C2=O)sc1-c1cnccc1C(F)(F)F [Example 14-15]	< 100
COc1ccncc1-c1sc(C(=O)CN2C(=O)NC3(CCC(F)(F)CC3)C2=O)cc1C [Example 14-16]	< 100
Cc1cc(C(=O)CN2C(=O)NC3(CCC(F)(F)CC3)C2=O)sc1-c1cncc(F)c1 [Example 14-17]	< 100
Cc1cc(C(=O)CN2C(=O)NC3(CCC(F)(F)CC3)C2=O)sc1-c1cccc(C(N)=O)c1 [Example 14-18]	< 500
Cc1cc(C(=O)CN2C(=O)NC3(CCC(F)(F)CC3)C2=O)sc1-c1cccnc1CO [Example 14-19]	< 500
Cc1cc(C(=O)CN2C(=O)NC3(CCC(F)(F)CC3)C2=O)sc1-c1cccc2cccnc12 [Example 14-20]	< 500
Cc1cc(C(=O)CN2C(=O)NC3(CCC(F)(F)CC3)C2=O)sc1-c1cccc(CO)c1 [Example 14-21]	< 500
Cc1sc(C(=O)CN2C(=O)NC3(CCC(F)(F)CC3)C2=O)c(C)c1-c1ccccc1C#N [Example 15-1]	< 100
Cc1sc(C(=O)CN2C(=O)NC3(CCC(F)(F)CC3)C2=O)c(C)c1-c1cccnc1 [Example 15-2]	< 100
Cc1sc(C(=O)CN2C(=O)NC3(CCC(F)(F)CC3)C2=O)c(C)c1-c1cccc(C#N)c1 [Example 15-3]	< 100
Cc1ccncc1-c1c(C)sc(C(=O)CN2C(=O)NC3(CCC(F)(F)CC3)C2=O)c1C [Example 15-4]	< 100
Cc1sc(C(=O)CN2C(=O)NC3(CCC(F)(F)CC3)C2=O)c(C)c1-c1cncnc1 [Example 15-5]	< 100
Cc1sc(C(=O)CN2C(=O)NC3(CCC(F)(F)CC3)C2=O)c(C)c1-c1cncc(F)c1 [Example 15-6]	< 10
Cc1sc(C(=O)CN2C(=O)NC3(CCC(F)(F)CC3)C2=O)c(C)c1-c1cccc(C(N)=O)c1 [Example 15-7]	< 100
Cc1sc(C(=O)CN2C(=O)NC3(CCC(F)(F)CC3)C2=O)c(C)c1-c1ccccc1 [Example 15-8]	< 500
Cc1ccccc1-c1c(C)sc(C(=O)CN2C(=O)NC3(CCC(F)(F)CC3)C2=O)c1C [Example 15-9]	< 500
Cc1sc(C(=O)CN2C(=O)NC3(CCC(F)(F)CC3)C2=O)c(C)c1-c1cncc(C(N)=O)c1 [Example 15-10]	< 500
Cc1cccc(-c2c(C)sc(C(=O)CN3C(=O)NC4(CCC(F)(F)CC4)C3=O)c2C)c1 [Example 15-11]	< 500
Cc1sc(C(=O)CN2C(=O)NC3(CCC(F)(F)CC3)C2=O)c(C)c1-c1cccc(CO)c1 [Example 15-12]	< 500
Cn1c(C(=O)CN2C(=O)NC3(CCC(F)(F)CC3)C2=O)ccc1-c1cccc(C#N)c1 [Example 16-1]	< 100

Compound	IC50 [nM]
Cc1ccncc1-c1ccc(C(=O)CN2C(=O)NC3(CCC(F)(F)CC3)C2=O)n1C [Example 16-2]	< 100
Cn1c(C(=O)CN2C(=O)NC3(CCC(F)(F)CC3)C2=O)ccc1-c1cccnc1 [Example 16-3]	< 100
Cc1cc(C(=O)CN2C(=O)NC3(CCC(F)(F)CC3)C2=O)n(C)c1-c1cccc(C#N)c1 [Example 16-4]	< 10
Cc1cc(C(=O)CN2C(=O)NC3(CCC(F)(F)CC3)C2=O)n(C)c1-c1cccc(F)c1 [Example 16-5]	< 100
Cc1cc(C(=O)CN2C(=O)NC3(CCC(F)(F)CC3)C2=O)n(C)c1-c1cccc(C(N)=O)c1 [Example 16-6]	< 100
Cc1cc(C(=O)CN2C(=O)NC3(CCC(F)(F)CC3)C2=O)n(C)c1-c1ccccc1C#N [Example 16-7]	< 100
Cc1cc(C(=O)CN2C(=O)NC3(CCC(F)(F)CC3)C2=O)n(C)c1-c1ccccc1CO [Example 16-8]	< 100
Cc1cc(C(=O)CN2C(=O)NC3(CCC(F)(F)CC3)C2=O)n(C)c1-c1cc(F)cc(F)c1 [Example 16-9]	< 100
Cc1ccncc1-c1c(C)cc(C(=O)CN2C(=O)NC3(CCC(F)(F)CC3)C2=O)n1C [Example 16-10]	< 100
Cc1cc(C(=O)CN2C(=O)NC3(CCC(F)(F)CC3)C2=O)n(C)c1-c1cccnc1 [Example 16-11]	< 100
Cc1cc(C(=O)CN2C(=O)NC3(CCC(F)(F)CC3)C2=O)n(C)c1-c1cccc(Cl)c1 [Example 16-12]	< 100
Cc1cc(C(=O)CN2C(=O)NC3(CCC(F)(F)CC3)C2=O)n(C)c1-c1ccccc1F [Example 16-13]	< 100
COc1cccc(-c2c(C)cc(C(=O)CN3C(=O)NC4(CCC(F)(F)CC4)C3=O)n2C)c1 [Example 16-14]	< 100
Cc1cc(C(=O)CN2C(=O)NC3(CCC(F)(F)CC3)C2=O)n(C)c1-c1cccc2ccncc12 [Example 16-15]	< 100
Cc1cc(C(=O)CN2C(=O)NC3(CCC(F)(F)CC3)C2=O)n(C)c1-c1cncnc1 [Example 16-16]	< 100
Cc1cc(C(=O)CN2C(=O)NC3(CCC(F)(F)CC3)C2=O)n(C)c1-c1cccc2c1CNC2=O [Example 16-17]	< 100
Cc1cccc(-c2c(C)cc(C(=O)CN3C(=O)NC4(CCC(F)(F)CC4)C3=O)n2C)c1 [Example 16-18]	< 100
Cc1ccccc1-c1c(C)cc(C(=O)CN2C(=O)NC3(CCC(F)(F)CC3)C2=O)n1C [Example 16-19]	< 100
CC(=O)c1cccc(-c2c(C)cc(C(=O)CN3C(=O)NC4(CCC(F)(F)CC4)C3=O)n2C)c1 [Example 16-20]	< 100
Cc1cc(C(=O)CN2C(=O)NC3(CCC(F)(F)CC3)C2=O)n(C)c1-c1cncc(F)c1 [Example 16-21]	< 100
Cc1c(C(=O)CN2C(=O)NC3(CCC(F)(F)CC3)C2=O)cn(C)c1-c1cccc(C#N)c1 [Example 16-22]	< 100
Cc1c(C(=O)CN2C(=O)NC3(CCC(F)(F)CC3)C2=O)cn(C)c1-c1cncc(F)c1 [Example 16-23]	< 100
Cc1c(C(=O)CN2C(=O)NC3(CCC(F)(F)CC3)C2=O)cn(C)c1-c1cccc(F)c1 [Example 16-24]	< 100
Cc1c(C(=O)CN2C(=O)NC3(CCC(F)(F)CC3)C2=O)cn(C)c1-c1ccccc1C#N [Example 16-25]	< 100
Cc1c(C(=O)CN2C(=O)NC3(CCC(F)(F)CC3)C2=O)cn(C)c1-c1cccnc1 [Example 16-26]	< 500
